Entries after “also recorded” stand apart in the source; their conditions may differ.
Columns and labels:
splenocytes = experiment: FACS analysis of splenocytes for peripheral immune cell markers; type: in vivo, mouse; settings: peptide-treated vs untreated PLP139-151 immunized mice, day 29
Text: FACS Analysis. Primary mouse splenocytes were isolated from control and γ^377-395 peptide-treated mice, immunized with PLP139-151, on day 29 after immunization. Cells were immunostained with antibodies to CD4, CD8, CD11b, CD11c, CD19, B220 (1:100, Biolegend, San Diego, Calif.) and analyzed on a Becton Dickinson FACSCalibur flow cytometer.

Akt = Akt phosphorylation immunoblot in microglia; type: cell-based, mouse; settings: for effect on fibrin-mediated phosphorylation of Akt: microglia on fibrinogen plus peptide; for effect on LPS-mediated phosphorylation of Akt: microglia with LPS plus peptide
Protocol: Immunoblots. Western blots were performed using standard protocols (55). Microglia were serum-starved overnight and plated on fibrinogen or with LPS for 6 hours. Lysates were electrophoresed on 4-12% gradient SDS-PAGE gels and probed with phospho and total Akt antibodies (1:1000, Cell Signaling, Beverly, Mass.). RhoA activation was performed as described (60). Briefly, 2×107 microglia were plated on fibrinogen for 6 hours or with LPS for 10 minutes. Cell lysates were incubated with GST-Rhotekin agarose beads (kindly provided by Dr. Joan Heller Brown, UCSD) for 45 minutes at 4° C. The beads were washed, resuspended in Laemmli sample buffer, and electophoresed on a 15% SDS-PAGE gel. Activated and total Rho were detected with mouse anti-RhoA (1:500, Santa Cruz Biotechnology, Santa Cruz, Calif.). Densitometry was performed using the NIH Scion Image software using three blots from three separate experiments.

“tyr-ser-met-lys-lys-thr-thr-met-lys-ile-ile-pro-phe-asn-arg-leu-thr-ile-gly (YSMKKTTMKIIPFNRLTIG) (listed as Homo sapiens) [γ^377-395 peptide]” was tested, and the “peripheral immune cells (CD4, CD8, CD11b, CD11c, CD19, B220) in splenocytes” value (splenocytes) was “did not reveal any differences; also recorded: no significant effect”, the “effect on fibrin-mediated phosphorylation of Akt” value (Akt) was “specifically inhibit” and the “effect on fibrin-mediated phosphorylation of Akt” value (Akt; listed as γ^377-395) was “blocks”. For the same substance, the “effect on LPS-mediated phosphorylation of Akt” value (Akt) was “not LPS-mediated” and the “effect on LPS-mediated phosphorylation of Akt” value (Akt; listed as γ^377-395) was “unaffected”.

Source: patent US8569242B2, “Method of treating degenerative disorders of the nervous system” (The Regents of the University of California, priority 2005, dated 2013)
